From patent US8110217B2, “Sphingomyelin liposomes for the treatment of hyperactive bladder disorders” (priority 2001, dated 2012)
“Also recorded” adds a separate entry of the source.

Test system: hyperactive bladder (PS/KCl)
Test: Continuous CMG, hyperactive bladder induced by PS/KCl (Examples 5-6)
Format: in vivo, female Sprague-Dawley rats
Conditions: for Amplitude / Compliance / ICI / PT: N=6
Experimental: This was followed by instillation of liposomes (LP) in saline (in the case of the former) or LP/KCl.
Intravesical bladder pressure was recorded via a transurethral catheter in adult female Sprague-Dawley rats anesthetized with urethane (1.2 g/kg) administered by subcutaneous injection (sc). Some animals were pretreated with capsaicin (125 mg/kg, sc) four days prior to the experiments. […] Parameters measured included intercontraction interval (ICI), amplitude of bladder contractions, compliance and micturition pressure threshold (PT).
Animal Preparation. Thirty-four female Sprague-Dawley rats (250-300 g) were used in this study. Animals were anesthetized with urethane (1.2 g/kg, sc). Body temperature was maintained in the physiological range using a heating lamp.
Cystometrogram (CMG). A transurethral bladder catheter (PE-50) was connected via a three-way stopcock to a pressure transducer and to a syringe pump. This was used to record intravesical pressure and to infuse solutions into the bladder. A control CMG was performed by slowly filling the bladder with saline (0.04 ml/min) to elicit repetitive voiding. The parameters recorded were amplitude, PT, compliance, and ICI of reflex bladder contractions. Measurements in each animal represented the average of 3 to 5 bladder contractions.
Induction of a Hyperactive Bladder. […] L. Cheng et al., 1993, Am. J. Physiol. 265:R132-138). The experimental design is illustrated in FIG. 7. The KCl concentration used was within the range of concentrations present in normal rat urine (M. Ohnishi et al., 2001, Toxicol. Appl. Pharmacol. 174:122-129).
Preparation of Liposomes (LP). LP were prepared as described by Kirby and Gregoriadis (C. J. Kirby and G. Gregoriadia, 1984, “A simple procedure for preparing liposomes capable of high encapsulation efficiency under mild conditions,” Liposome Technology; G. Gregnoriadis, Ed., C.R.C. Press, Inc., Boca Raton, Fla., Vol. 1, p. 20). Briefly, LP were constructed as a 2:1 molar ratio of L-α-phosphatidylcholine and cholesterol (Sigma Chemical Co., St. Louis, Mo.) to a final lipid concentration of 2 mg/ml in saline. Lipids in chloroform were dried down together in the proper ratio under nitrogen. The residues were reconstituted as LP in saline or 500 mM KCl by intense sonication.
Statistical Analyis. Statistical analyses were performed using Student's t test for paired or unpaired data, where applicable. A p-value less than 0.05 was considered significant. All data are expressed in Example 2 (below) as means±S.E.

[1] = Table 1B series: saline, KCl 500 mM 1 h, PS/KCl 1 h, LP/KCl 2 h
[2] = Table 1C series: saline, KCl 500 mM 1 h, PS/KCl 1 h
[3] = Table 1C: KCl infusion 2 h after PS/KCl
[4] = infusion after PS/KCl, vs pretreatment

Compound: [Cl-].[K+] [KCl]
- PT change (PS/KCl series, vs pretreatment): significantly increased
- Amplitude [1]: 28.8 ± 1.2 cm H2O
- Compliance [1]: 0.284±0.028 ml/cm H2O
- ICI [1]: 15.8 ± 1.4 min
- PT [1]: 8.2 ± 0.9 cm H2O
- Amplitude [2]: 28.8 ± 2.2 cm H2O
- Compliance [2]: 0.226±0.050 ml/cm H2O
- ICI [2]: 16.3 ± 1.5 min
- PT [2]: 6.8 ± 0.6 cm H2O
- Amplitude [3]: 33.0 ± 2.3 cm H2O
- Compliance [3]: 0.043±0.014 ml/cm H2O
- ICI [3]: 2.9 ± 0.5 min
- PT [3]: 11.8 ± 1.6 cm H2O
- change of ICI / CMGs (infused alone: PS 10 mg/ml or KCl 500 mM): not changed; also recorded: did not significantly change the CMGs
- Compliance change [4]: further reduced
- ICI change [4]: not significantly changed; also recorded: did not alter the ICI for periods as long as 120 min
